Source: patent US11053204B2, “Pyrimidinyloxy benzene derivatives as herbicides” (FMC Corporation, priority 2015, dated 2021)

Experiments:
Assay type in all cases: in vivo
[1] = test system: barnyardgrass (Echinochloa crus-galli); assay: Test A preemergence, visual injury rating; settings: 0 to 100 scale (0 no effect, 100 complete control)
Outline: (§1)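 Scoring: eye-based comparison with untreated controls, 0 for no effect through 100 for complete control, at about day 10. Treatments: directed soil spray preemergence; foliar spray postemergence on 2–10 cm plants at the one- to two-leaf stage. Medium: loam soil with sand.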

[2] = test system: Italian ryegrass (Lolium multiflorum); assay: Test A preemergence, visual injury rating; settings: 0 to 100 scale (0 no effect, 100 complete control)
Outline: as §1

[3] = test system: kochia (Kochia scoparia); assay: Test A preemergence, visual injury rating; settings: 0 to 100 scale (0 no effect, 100 complete control)
Outline: as §1

[4] = test system: pigweed (Amaranthus retroflexus); assay: Test A preemergence, visual injury rating; settings: 0 to 100 scale (0 no effect, 100 complete control)
Outline: as §1

[5] = test system: ragweed (common ragweed, Ambrosia elatior); assay: Test A preemergence, visual injury rating; settings: 0 to 100 scale (0 no effect, 100 complete control)
Outline: as §1

[6] = test system: giant foxtail (Setaria faberii); assay: Test A preemergence, visual injury rating; settings: 0 to 100 scale (0 no effect, 100 complete control)
Outline: as §1

[7] = test system: barnyardgrass (Echinochloa crus-galli); assay: Test A postemergence, visual injury rating; settings: 0 is no effect, 100 is complete control
Outline: as §1

[8] = test system: corn (Zea mays); assay: Test A postemergence, visual injury rating; settings: 0 is no effect, 100 is complete control
Outline: as §1

[9] = test system: blackgrass (Alopecurus myosuroides); assay: Test A postemergence, visual injury rating; settings: 0 is no effect, 100 is complete control
Outline: as §1

[10] = test system: Italian ryegrass (Lolium multiflorum); assay: Test A postemergence, visual injury rating; settings: 0 is no effect, 100 is complete control
Outline: as §1

[11] = test system: kochia (Kochia scoparia); assay: Test A postemergence, visual injury rating; settings: 0 is no effect, 100 is complete control
Outline: as §1

[12] = test system: galium (catchweed bedstraw, Galium aparine); assay: Test A postemergence, visual injury rating; settings: 0 is no effect, 100 is complete control
Outline: as §1

[13] = test system: pigweed (Amaranthus retroflexus); assay: Test A postemergence, visual injury rating; settings: 0 is no effect, 100 is complete control
Outline: as §1

[14] = test system: ragweed (common ragweed, Ambrosia elatior); assay: Test A postemergence, visual injury rating; settings: 0 is no effect, 100 is complete control
Outline: as §1

[15] = test system: giant foxtail (Setaria faberii); assay: Test A postemergence, visual injury rating; settings: 0 is no effect, 100 is complete control
Outline: as §1

[16] = test system: wheat (Triticum aestivum); assay: Test A postemergence, visual injury rating; settings: 0 is no effect, 100 is complete control
Outline: as §1

[17] = test system: ducksalad (Heteranthera limosa); assay: Test B flooded paddy test, plant response rating; settings: 250 g ai/ha; Flood; scale of 0 to 100 where 0 is no effect and 100 is complete control; 13 to 15 days
Outline: (§2)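 Visual injury ratings against untreated controls, taken 13 to 15 days after compound was added to paddy water standing 3 cm above the soil.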

[18] = test system: barnyardgrass (Echinochloa crus-galli); assay: Test B flooded paddy test, plant response rating; settings: 250 g ai/ha; Flood; scale of 0 to 100 where 0 is no effect and 100 is complete control; 13 to 15 days
Outline: as §2

[19] = test system: rice (Oryza sativa); assay: Test B flooded paddy test, plant response rating; settings: 250 g ai/ha; Flood; scale of 0 to 100 where 0 is no effect and 100 is complete control; 13 to 15 days
Outline: as §2

[20] = test system: sedge, umbrella (small-flower umbrella sedge, Cyperus difformis); assay: Test B flooded paddy test, plant response rating; settings: 250 g ai/ha; Flood; scale of 0 to 100 where 0 is no effect and 100 is complete control; 13 to 15 days
Outline: as §2

Structure (SMILES)	Barnyardgrass plant response rating ([1]; 125 g ai/ha)	Barnyardgrass plant response rating ([1]; 500 g ai/ha)	Ryegrass, Italian plant response rating ([2]; 125 g ai/ha)	Ryegrass, Italian plant response rating ([2]; 500 g ai/ha)	Kochia plant response rating ([3]; 125 g ai/ha)	Kochia plant response rating ([3]; 500 g ai/ha)	Pigweed plant response rating ([4]; 125 g ai/ha)	Pigweed plant response rating ([4]; 500 g ai/ha)	Ragweed plant response rating ([5]; 125 g ai/ha)	Ragweed plant response rating ([5]; 500 g ai/ha)	Foxtail, Giant plant response rating ([6]; 125 g ai/ha)	Foxtail, Giant plant response rating ([6]; 500 g ai/ha)	Barnyardgrass plant response rating (0 to 100 scale) ([7]; 125 g ai/ha)	Barnyardgrass plant response rating (0 to 100 scale) ([7]; 500 g ai/ha)	Corn plant response rating (0 to 100 scale) ([8]; 125 g ai/ha)	Corn plant response rating (0 to 100 scale) ([8]; 500 g ai/ha)	Blackgrass plant response rating (0 to 100 scale) ([9]; 125 g ai/ha)	Blackgrass plant response rating (0 to 100 scale) ([9]; 500 g ai/ha)	Ryegrass, Italian plant response rating (0 to 100 scale) ([10]; 125 g ai/ha)	Ryegrass, Italian plant response rating (0 to 100 scale) ([10]; 500 g ai/ha)	further results
O=C(OCC(F)(F)F)c1c(F)cccc1Oc1ncc(Br)cn1 [Compound 47]	0	0	0	0	0	0	0	0	0	0	0	0	0	0	0	0	0	0	0	0	Kochia plant response rating (0 to 100 scale) ([11]; 125 g ai/ha): 0; Kochia plant response rating (0 to 100 scale) ([11]; 500 g ai/ha): 0; Galium plant response rating (0 to 100 scale) ([12]; 125 g ai/ha): 0; Galium plant response rating (0 to 100 scale) ([12]; 500 g ai/ha): 0; Pigweed plant response rating (0 to 100 scale) ([13]; 125 g ai/ha): 0; Pigweed plant response rating (0 to 100 scale) ([13]; 500 g ai/ha): 0; Ragweed plant response rating (0 to 100 scale) ([14]; 125 g ai/ha): 0; Ragweed plant response rating (0 to 100 scale) ([14]; 500 g ai/ha): 0; Foxtail, Giant plant response rating (0 to 100 scale) ([15]; 125 g ai/ha): 0; Foxtail, Giant plant response rating (0 to 100 scale) ([15]; 500 g ai/ha): 0; Wheat plant response rating (0 to 100 scale) ([16]; 125 g ai/ha): 0; Wheat plant response rating (0 to 100 scale) ([16]; 500 g ai/ha): 0; Plant response rating, Ducksalad [17]: 0; Plant response rating, Barnyardgrass [18]: 0; Plant response rating, Rice [19]: 0; Plant response rating, Sedge, Umbrella [20]: 0
O=C(OCC(F)(F)F)c1c(F)cccc1Oc1ncc(Cl)cn1 [Compound 48]	0	10	0	0	0	0	0	0	0	0	0	10	0	30	0	0	0	20	0	0	Kochia plant response rating (0 to 100 scale) ([11]; 125 g ai/ha): 0; Kochia plant response rating (0 to 100 scale) ([11]; 500 g ai/ha): 0; Galium plant response rating (0 to 100 scale) ([12]; 125 g ai/ha): 0; Galium plant response rating (0 to 100 scale) ([12]; 500 g ai/ha): 10; Pigweed plant response rating (0 to 100 scale) ([13]; 125 g ai/ha): 20; Pigweed plant response rating (0 to 100 scale) ([13]; 500 g ai/ha): 40; Ragweed plant response rating (0 to 100 scale) ([14]; 125 g ai/ha): 0; Ragweed plant response rating (0 to 100 scale) ([14]; 500 g ai/ha): 0; Foxtail, Giant plant response rating (0 to 100 scale) ([15]; 125 g ai/ha): 0; Foxtail, Giant plant response rating (0 to 100 scale) ([15]; 500 g ai/ha): 20; Wheat plant response rating (0 to 100 scale) ([16]; 125 g ai/ha): 0; Wheat plant response rating (0 to 100 scale) ([16]; 500 g ai/ha): 0; Plant response rating, Ducksalad [17]: 0; Plant response rating, Barnyardgrass [18]: 20; Plant response rating, Rice [19]: 20; Plant response rating, Sedge, Umbrella [20]: 0
N#CCOC(=O)c1c(F)cccc1Oc1ncc(Cl)cn1 [Compound 49]	0	0	0	0	0	0	0	0	0	0	0	0	0	0	0	0	0	0	0	0	Kochia plant response rating (0 to 100 scale) ([11]; 125 g ai/ha): 0; Kochia plant response rating (0 to 100 scale) ([11]; 500 g ai/ha): 0; Galium plant response rating (0 to 100 scale) ([12]; 125 g ai/ha): 0; Galium plant response rating (0 to 100 scale) ([12]; 500 g ai/ha): 0; Pigweed plant response rating (0 to 100 scale) ([13]; 125 g ai/ha): 0; Pigweed plant response rating (0 to 100 scale) ([13]; 500 g ai/ha): 0; Ragweed plant response rating (0 to 100 scale) ([14]; 125 g ai/ha): 0; Ragweed plant response rating (0 to 100 scale) ([14]; 500 g ai/ha): 0; Foxtail, Giant plant response rating (0 to 100 scale) ([15]; 125 g ai/ha): 0; Foxtail, Giant plant response rating (0 to 100 scale) ([15]; 500 g ai/ha): 0; Wheat plant response rating (0 to 100 scale) ([16]; 125 g ai/ha): 0; Wheat plant response rating (0 to 100 scale) ([16]; 500 g ai/ha): 0; Plant response rating, Ducksalad [17]: 0; Plant response rating, Barnyardgrass [18]: 20; Plant response rating, Rice [19]: 20; Plant response rating, Sedge, Umbrella [20]: 0
